The source of these data is ChEMBL document CHEMBL1201862, “PubChem BioAssay data set” (2004).

Assay [1] deals with T1, Calpain-2 catalytic subunit (Sus scrofa, UniProt P43367).
T1 sequence (P43367 whole entry): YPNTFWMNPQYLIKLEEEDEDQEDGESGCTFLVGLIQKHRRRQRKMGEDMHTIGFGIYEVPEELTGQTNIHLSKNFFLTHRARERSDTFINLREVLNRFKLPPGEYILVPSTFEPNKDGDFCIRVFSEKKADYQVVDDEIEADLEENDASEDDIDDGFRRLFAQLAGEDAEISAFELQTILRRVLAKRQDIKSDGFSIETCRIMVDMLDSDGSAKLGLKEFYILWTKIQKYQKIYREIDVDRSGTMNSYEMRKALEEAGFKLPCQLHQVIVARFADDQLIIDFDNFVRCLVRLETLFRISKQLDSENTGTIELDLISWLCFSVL
In words: pig calpain II inhibitor potency, dose response, biochemical, fluorogenic peptide substrate (AID 1420). Type of assay: functional.

For assay [2], the target named is T2, Polyadenylate-binding protein 1 (Homo sapiens, UniProt P11940). The assay can be described thus: PABP1 MLLE–PAM2 interaction inhibitors, dose response, miRNA deadenylation inhibitor project, biochemical, fluorescence polarization, Cy5-PAM2 peptide, secondary (AID 602260). Type of assay: functional. The following applies: read-out: IC50_Mean. In general terms: Polarisation of emitted light reports the rotation of a fluorescent probe.

In assay [3] the target is T2, Polyadenylate-binding protein 1. In words: PABP1 MLLE–PAM2 binding inhibitor potency, dose response, biochemical, fluorescence polarization, FITC-PAM2 peptide (AID 602259). Type of assay: functional. Conditions: read-out: IC50_Mean.
Assay [4] has as its target Cytochrome P450 2C19 (Homo sapiens, UniProt P33261). In words: Cytochrome panel assay with activity outcomes. Panel member name: p450-cyp2c19 Compounds with AC50 equal or less than 10 uM are considered active. Type of assay: functional. Conditions: read-out: AC50.
Assay [5] deals with Cytochrome P450 3A4 (Homo sapiens, UniProt P08684).
The nature of assay [6]: inhibitors of HIV Env-driven cell fusion, dose response, cherry-pick (AID 652057). Type of assay: functional, cell-based.
Assay [7] is described as follows: ZM109 Env clade C HIV-1 fusion inhibitors, dose response, HeLa effector, CEM target cells, luciferase, cherry-pick (AID 652058). Type of assay: functional, cell-based.
The nature of assay [8]: off-target signal loss in HeLa-CEM21 co-culture – HeLa F-luc CTL cells, cherry-picked, counter-screen for HIV-1 Env fusion inhibitor project, dose response (AID 652040).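 Note: potency for signal decrease marking cytotoxic or nonspecific inhibition.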 Type of assay: functional, cell-based. (The purpose of a counterscreen is to sort out artefacts and off-target activity.)
Assay [9] in a line: inhibitors of clade B AD8 Env fusion, dose response, cell-based, cherry-pick (AID 652062).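 Note: luciferase signal from cell-cell fusion driven by HIV-1 clade B AD8 Env; potency is for inhibitors of fusion seen as a drop in luminescence.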 Type of assay: functional.

Molecules are shown by their SMILES. Calls of active or inactive are those of the source.

T2 sequence (P11940 whole entry): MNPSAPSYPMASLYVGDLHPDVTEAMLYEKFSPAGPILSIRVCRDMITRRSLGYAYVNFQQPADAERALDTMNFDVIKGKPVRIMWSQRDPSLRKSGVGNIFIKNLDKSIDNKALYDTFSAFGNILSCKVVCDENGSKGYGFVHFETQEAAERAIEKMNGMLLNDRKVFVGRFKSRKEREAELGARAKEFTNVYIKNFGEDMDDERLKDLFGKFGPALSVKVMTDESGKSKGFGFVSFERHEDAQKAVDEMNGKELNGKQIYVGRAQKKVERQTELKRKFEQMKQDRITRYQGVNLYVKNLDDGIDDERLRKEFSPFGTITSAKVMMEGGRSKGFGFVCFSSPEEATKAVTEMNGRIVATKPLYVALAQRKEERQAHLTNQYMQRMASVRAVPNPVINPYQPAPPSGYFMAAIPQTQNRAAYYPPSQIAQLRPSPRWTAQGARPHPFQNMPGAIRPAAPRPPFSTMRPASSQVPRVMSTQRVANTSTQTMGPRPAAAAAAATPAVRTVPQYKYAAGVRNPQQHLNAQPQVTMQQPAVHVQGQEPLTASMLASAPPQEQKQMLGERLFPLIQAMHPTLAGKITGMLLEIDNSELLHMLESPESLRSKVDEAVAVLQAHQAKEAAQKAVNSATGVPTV
Cytochrome P450 2C19, sequence (P33261 whole entry): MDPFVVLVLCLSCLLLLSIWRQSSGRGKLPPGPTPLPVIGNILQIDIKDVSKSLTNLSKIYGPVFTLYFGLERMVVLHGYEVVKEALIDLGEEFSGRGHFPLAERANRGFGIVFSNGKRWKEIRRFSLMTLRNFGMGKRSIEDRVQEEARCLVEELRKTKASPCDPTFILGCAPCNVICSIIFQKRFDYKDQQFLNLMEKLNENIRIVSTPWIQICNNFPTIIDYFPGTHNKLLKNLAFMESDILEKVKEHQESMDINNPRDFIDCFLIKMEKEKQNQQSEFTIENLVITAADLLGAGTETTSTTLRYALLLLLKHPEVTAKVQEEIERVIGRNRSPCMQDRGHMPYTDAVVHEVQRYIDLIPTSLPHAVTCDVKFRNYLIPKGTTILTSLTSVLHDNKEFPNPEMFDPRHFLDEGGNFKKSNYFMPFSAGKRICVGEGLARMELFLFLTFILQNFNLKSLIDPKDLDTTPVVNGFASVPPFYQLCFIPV
Cytochrome P450 3A4, sequence (P08684 whole entry, the tested form may be a part): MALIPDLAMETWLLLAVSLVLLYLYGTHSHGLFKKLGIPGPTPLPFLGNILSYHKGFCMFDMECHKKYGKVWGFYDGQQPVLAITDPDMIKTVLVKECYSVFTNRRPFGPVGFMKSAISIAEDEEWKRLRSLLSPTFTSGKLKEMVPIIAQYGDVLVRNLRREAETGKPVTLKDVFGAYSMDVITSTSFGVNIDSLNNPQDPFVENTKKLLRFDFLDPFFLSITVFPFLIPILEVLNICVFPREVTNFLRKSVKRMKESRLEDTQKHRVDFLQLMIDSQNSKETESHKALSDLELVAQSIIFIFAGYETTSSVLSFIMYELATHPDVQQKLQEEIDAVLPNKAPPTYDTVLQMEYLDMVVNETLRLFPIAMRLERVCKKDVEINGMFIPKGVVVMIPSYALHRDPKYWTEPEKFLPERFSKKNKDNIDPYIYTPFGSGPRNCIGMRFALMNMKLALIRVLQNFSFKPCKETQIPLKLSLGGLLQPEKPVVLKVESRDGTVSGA

Turning to `COc1ccccc1NC(=O)C12CC3CC(C1)CC(c1ccc(C)cc1)(C3)C2`, the IC50 in assay [1] was 3.42 µM (not active).
For the compound `Cc1cccc(NC(=O)NC(=S)NC(=O)c2ccccc2)c1`, the IC50 in [2] and in assay [3] was > 66 µM (inactive) in each case.
Turning to `COc1cc2c(cc1[N+](=O)[O-])n(C(C)C)c(=O)n2C(C)C`, the IC50 in [1] is recorded as > 50 µM (not active).
The same measure, in the same setting: for `CC1(C(=O)NCc2ccc(Cl)c(Cl)c2)Oc2ccccc2NC1=O` (stereo unspecified) the value was 5.76 µM (not active).
For the compound `O=C(NC(=S)NC1CCSC1=O)c1ccc([N+](=O)[O-])cc1` (stereo unspecified), the IC50 in assay [2] and in assay [3] was > 66 µM (inactive) in each case.
One may read the AC50 as the concentration at which the activity in the assay is half-maximal. As for `O=C(Nc1cccc(C(F)(F)F)c1)c1cccn(Cc2ccc3c(c2)OC(F)(F)O3)c1=O`, the IC50 in assay [1] was > 50 µM (not active). Also, the concentration at half-maximal activity (AC50) in [4] is 2.24 µM (inconclusive); in [5], 25.1 µM (inconclusive).
Take `O=C(c1cc([N+](=O)[O-])ccc1N1CCOCC1)N1CCCCC1`: the IC50 in assay [1] is on record as > 50 µM (not active).
The same measure, in the same setting: as for `CCOc1ncccc1C(=O)Nc1nnc(C)s1`, the figure is > 50 µM (not active).
`CCC(C)NC(=O)[C@H]1N2C(=O)c3c(ccc(OC)c3OC)C2SC1(C)C` (stereo partly specified): the IC50 in [2] and in assay [3] was > 66 µM (inactive) throughout.
With `CC1(C)CC2CC(C)(CN2S(=O)(=O)c2cccc(C(=O)OCC(=O)NC(N)=O)c2)C1` (stereo unspecified), the AC50 in assay [6] is 6.32 µM (active); in assay [7] it was 6.73 µM (active); in [8], 6.33 µM (active); in [9], 13.8 µM (active).
Consider `Cc1nc2sccn2c1-c1csc(NCc2ccccc2)n1`, for which the AC50 in [6] was 15.4 µM (active); in [7] it was 10.1 µM (active); in assay [8] it was 24 µM (active); in assay [9], 10.7 µM (active).
`O=C(NCc1cccnc1)c1cnc2cc3c(cc2c1O)OCCO3`: the figures for the AC50 in assay [8] and in assay [9] were < 0.26 µM (active) and 1.22 µM (active), respectively.
Take `Cn1nc(C(F)(F)F)c2cc(NC(=O)OCc3ccc(F)cc3)sc21`: the IC50 in [1] was 6.72 µM (active).
In the case of `CCC1(c2ccccc2)NC(=O)N(CC(=O)Nc2cc(S(=O)(=O)N3CCCCC3)ccc2OC(C)C)C1=O` (stereo unspecified), the AC50 is 1.8 µM (active) in assay [6], 3.02 µM (active) in [7], 5.57 µM (active) in assay [8] and 14.7 µM (active) in assay [9].
On to `Cc1cc(Cl)ccc1OCCCC(=O)Nc1cc(S(=O)(=O)N2CCOCC2)ccc1N1CCOCC1`, for which the concentration at half-maximal activity (AC50) in [6] was 2.05 µM (active); in assay [7] it was 5.3 µM (active); in assay [8] it was 4.73 µM (active); in assay [9], 7.34 µM (active).
Turning to `CC(=O)c1cccc(S(=O)(=O)NC2CCSc3ccccc32)c1` (stereo unspecified), the IC50 in assay [2] and in assay [3] was > 66 µM (inactive) throughout.
`CC(C)(C)N1C(=O)[C@H]2[C@@H](c3ccc(Br)cc3)N3C(=O)N(c4ccccc4)C(=O)[C@@]3(C)[C@H]2C1=O`: the AC50 is 1.13 µM (active) in assay [6], 1.08 µM (active) in [7], 1.18 µM (active) in assay [8] and 1.83 µM (active) in [9].
`O=c1[nH]nc(Sc2ccccc2)c(=S)[nH]1`: the IC50 in assay [2] and in assay [3] was > 66 µM (inactive) each time.
